For 16 compounds, IC50 results are on record in BindingDB's records for doi:10.1111/cbdd.12457 (Universiti Kebangsaan Malaysia, Jalan Raja Muda Abdul Aziz, 2015).

Broadly, the IC50 is the concentration that gives 50% inhibition. Read a high IC50 as weaker potency in that assay.

For assay [1], the target named is T1, Phospholipase A2 group V (Homo sapiens, UniProt P39877).
T1 sequence (P39877 whole entry): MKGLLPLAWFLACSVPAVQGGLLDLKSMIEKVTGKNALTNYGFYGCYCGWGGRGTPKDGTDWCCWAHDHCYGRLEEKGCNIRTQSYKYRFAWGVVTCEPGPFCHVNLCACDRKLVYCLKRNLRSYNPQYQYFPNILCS
The assay can be described thus: sPLA2V Activity Assay. The settings on record: pH 7.5; 25 °C. On the procedure:
Briefly, sn-2ester bond of the substrate 1,2-bis(heptanoylthio)-glycerophosphocholine was hydrolyzed by PLA2-V followed by the exposure of free thiols. These thiols activated the conversion of DTNB (5,5–dithio-bis-(2-nitrobenzoic acid) to 2-nitro-5-thiobenzoic acid, which was photometrically detected at 405 nm. After this, the assay proceeded in an aqueous buffer solution (pH 7.5) containing KCl (94 mM), CaCl2 (9 mM), Tris (24 mM), and Triton-X 100 ([…]). Before the assay was started, substrate and PLA2-V was resuspended in assay buffer whereas DTNB was dissolved in an aqueous solution of Tris-HCl (pH 8) yielding an enzyme and DTNB concentrations of 100 ng/mL and 87 BM, respectively. 96-well micro titre plates containing substrate solution, DTNB, and the respective test substance were used to carry out assays at room temperature.

For assay [2], the target named is T2, Prostaglandin G/H synthase 1 (Ovis aries, UniProt P05979).
T2 sequence (P05979 whole entry): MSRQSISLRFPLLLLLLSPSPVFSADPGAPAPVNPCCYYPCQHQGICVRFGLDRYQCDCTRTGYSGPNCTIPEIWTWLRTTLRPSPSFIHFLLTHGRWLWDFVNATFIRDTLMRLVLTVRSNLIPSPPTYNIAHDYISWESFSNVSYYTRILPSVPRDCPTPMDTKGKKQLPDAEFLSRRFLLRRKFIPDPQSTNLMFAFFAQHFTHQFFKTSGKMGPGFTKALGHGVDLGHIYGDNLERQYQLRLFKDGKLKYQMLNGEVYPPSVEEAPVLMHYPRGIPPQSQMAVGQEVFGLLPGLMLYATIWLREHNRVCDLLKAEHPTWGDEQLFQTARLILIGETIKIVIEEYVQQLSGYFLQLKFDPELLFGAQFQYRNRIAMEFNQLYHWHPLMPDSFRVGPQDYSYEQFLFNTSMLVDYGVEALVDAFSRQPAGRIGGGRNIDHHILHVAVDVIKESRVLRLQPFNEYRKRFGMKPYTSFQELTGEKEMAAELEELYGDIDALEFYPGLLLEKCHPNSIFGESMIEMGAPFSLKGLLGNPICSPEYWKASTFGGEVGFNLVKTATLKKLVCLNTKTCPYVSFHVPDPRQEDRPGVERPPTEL
The assay can be described thus: Cyclooxygenase Assay. The note with it: pH 8; 25 °C. Here is the method: (§1) 100 mM Tris HCl buffer, pH 8.0 containing 1 µM heme and COX-1 (ovine) or COX-2(human recombinant), which was preincubated for 10 min in a water bath at 37 °C was used for reaction mixture preparation. Addition of 10 µL arachidonic acid to the reaction mixture (final concentration 100 µM) was used to initiate reaction. After 2 min reaction was stopped by addition of 1 M HCl. PGE2 in the reaction mixture was determined using ELISA method. 100 mM potassium phosphate buffer (pH 7.4) was used to dilute the DMSO stock solutions of the test compounds to the desired concentration. This reaction mixture was transferred to a 96-well platethat was precoated with a mouse anti-rabbit IgG. Tracer prostaglandin acetylcholine esterase and primary antibody (mouse anti PGE2) were also added to the plates followed by overnight incubation at room temperature. After overnightincubation, reaction mixtures were pipetted out and the wells were washed with 10 mM potassium phosphate buffer containing 0.05% Twe

Assay [3] concerns the target T3, Prostaglandin G/H synthase 2 (Homo sapiens, UniProt P35354).
T3 sequence (P35354 whole entry): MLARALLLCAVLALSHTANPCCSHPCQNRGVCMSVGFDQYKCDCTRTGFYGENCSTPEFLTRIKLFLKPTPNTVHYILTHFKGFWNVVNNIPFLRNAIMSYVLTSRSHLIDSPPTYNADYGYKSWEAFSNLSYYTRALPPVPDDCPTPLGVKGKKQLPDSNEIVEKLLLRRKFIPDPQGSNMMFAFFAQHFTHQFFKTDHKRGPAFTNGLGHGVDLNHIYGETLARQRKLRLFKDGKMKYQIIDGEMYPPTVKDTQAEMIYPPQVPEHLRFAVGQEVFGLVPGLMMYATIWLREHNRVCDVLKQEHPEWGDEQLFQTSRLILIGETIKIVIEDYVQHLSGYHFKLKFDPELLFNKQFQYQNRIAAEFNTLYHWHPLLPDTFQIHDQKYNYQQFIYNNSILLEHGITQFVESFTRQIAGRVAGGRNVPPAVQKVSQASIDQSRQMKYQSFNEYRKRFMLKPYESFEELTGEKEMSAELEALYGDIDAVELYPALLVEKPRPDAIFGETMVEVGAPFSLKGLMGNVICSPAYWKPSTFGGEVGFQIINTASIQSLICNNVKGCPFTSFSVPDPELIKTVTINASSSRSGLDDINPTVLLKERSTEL
Nature of the assay: Cyclooxygenase Assay. The note with it: pH 8; 25 °C. On the procedure: as §1

Turning to `CN(C)c1ccc(/C=C/C(=O)c2ccc3c(c2)OCCO3)c2ccccc12` [1-(2,3-Dihydro-benzo[1,4]dioxin-6-yl)-3-(4-dimethylamino-naphthalen-1-yl)-propenone (4)], the IC50 turned out to be 32.2 µM in assay [1], 7.06 µM in assay [2] and 24.5 µM in assay [3].

Consider `COc1cc2ccccc2c(/C=C/C(=O)c2cc3ccccc3o2)c1OC` [1-Benzofuran-2-yl-3-(2,3-dimethoxy-naphthalen-1-yl)-propenone (3)], for which the IC50 in assay [1] came out at 12.7 µM; in assay [2], 12.5 µM; in assay [3], 12.2 µM.

For `COc1ccc2c(OC)ccc(/C=C/C(=O)c3cc4ccccc4o3)c2c1` [1-Benzofuran-2-yl-3-(4,7-dimethoxy-naphthalen-1-yl)-propenone (2)], the IC50 is 27.8 µM in assay [1], 15 µM in assay [2] and 19.1 µM in assay [3].

Consider `COc1cc2ccccc2c(C2CC(c3ccc4c(c3)OCCO4)=NN2C(N)=S)c1OC` (stereo unspecified) [3-(2,3-Dihydro-benzo[1,4]dioxin-6-yl)-5-(2,3-dimethoxy-naphthalen-1-yl)-4,5-dihydro-pyrazole-1-carbothioic acid amide (5a)], for which the results for the IC50 in assay [1], in assay [2] and in assay [3] were 19.2 µM, 3.42 µM and 17.8 µM, respectively.

As to `COc1cc2ccccc2c(C2CC(c3ccc4c(c3)OCCO4)=NN2C(=O)Nc2ccc(Cl)cc2)c1OC` (stereo unspecified) [3-(2,3-Dihydro-benzo[1,4]dioxin-6-yl)-5-(2,3-dimethoxy-naphthalen-1-yl)-4,5-dihydropyrazole-1-carboxylic acid (4-chloro-phenyl)-amide (5b)], the IC50 in assay [1] came out at 17.3 µM; in assay [2], 1.17 µM; in assay [3], 12.3 µM.

For `COc1ccc2c(OC)ccc(C3CC(c4ccc5c(c4)OCCO5)=NN3C(N)=S)c2c1` (stereo unspecified) [3-(2,3-Dihydro-benzo[1,4]dioxin-6-yl)-5-(4,7-dimethoxy-naphthalen-1-yl)-4,5-dihydro-pyrazole-1-carbothioic acid amide (6a)], the figures for the IC50 in assay [1], in assay [2] and in assay [3] were 7.12 µM, 2.82 µM and 12.6 µM, respectively.

Consider `COc1ccc2c(OC)ccc(C3CC(c4ccc5c(c4)OCCO5)=NN3C(=O)Nc3ccc(Cl)cc3)c2c1` (stereo unspecified) [3-(2,3-Dihydro-benzo[1,4]dioxin-6-yl)-5-(4,7-dimethoxy-naphthalen-1-yl)-4,5-dihydropyrazole-1-carboxylic acid (4-chloro-phenyl)-amide (6b)], for which the IC50 in assay [1] turned out to be 5.12 µM; in assay [2] it was 0.94 µM; in assay [3], 12 µM.

Regarding `CN(C)c1ccc(C2CC(c3ccc4c(c3)OCCO4)=NN2C(N)=S)c2ccccc12` (stereo unspecified) [3-(2,3-Dihydro-benzo[1,4]dioxin-6-yl)-5-(4-dimethylamino-naphthalen-1-yl)-4,5-dihydropyrazole-1-carbothioic acid amide (4a)], the IC50 in assay [1] was 22.2 µM; in assay [2], 1.12 µM; in assay [3] it was 13.2 µM.

With `CN(C)c1ccc(C2CC(c3ccc4c(c3)OCCO4)=NN2C(=O)Nc2ccc(Cl)cc2)c2ccccc12` (stereo unspecified) [3-(2,3-Dihydro-benzo[1,4]dioxin-6-yl)-5-(4-dimethylamino-naphthalen-1-yl)-4,5-dihydropyrazole-1-carboxylic acid (4-chloro-phenyl)-amide (4b)], the IC50 in assay [1] came out at 17.2 µM; in assay [2], 0.44 µM; in assay [3] it was 9.72 µM.

With `COc1cc2ccccc2c(C2CC(c3cc4ccccc4o3)=NN2C(N)=S)c1OC` (stereo unspecified) [3-Benzofuran-2-yl-5-(2,3-dimethoxy-naphthalen-1-yl)-4,5-dihydro-pyrazole-1-carbothioic acid amide (3a)], the values for the IC50 in assay [1], in assay [2] and in assay [3] were 9.17 µM, 8.06 µM and 10.3 µM, respectively.

Turning to `COc1cc2ccccc2c(C2CC(c3cc4ccccc4o3)=NN2C(=O)Nc2ccc(Cl)cc2)c1OC` (stereo unspecified) [3-Benzofuran-2-yl-5-(2,3-dimethoxy-naphthalen-1-yl)-4,5-dihydro-pyrazole-1-carboxylic acid(4-chloro-phenyl)-amide (3b)], the IC50 came to 8.46 µM in assay [1], 0.99 µM in assay [2] and 5.02 µM in assay [3].

Regarding `COc1ccc2c(OC)ccc(C3CC(c4cc5ccccc5o4)=NN3C(N)=S)c2c1` (stereo unspecified) [3-Benzofuran-2-yl-5-(4,7-dimethoxy-naphthalen-1-yl)-4,5-dihydro-pyrazole-1-carbothioic acid amide (2a)], the values for the IC50 in assay [1], in assay [2] and in assay [3] were 21.1 µM, 7.22 µM and 12.3 µM, respectively.

For the compound `COc1ccc2c(OC)ccc(C3CC(c4cc5ccccc5o4)=NN3C(=O)Nc3ccc(Cl)cc3)c2c1` (stereo unspecified) [3-Benzofuran-2-yl-5-(4,7-dimethoxy-naphthalen-1-yl)-4,5-dihydro-pyrazole-1-carboxylic acid(4-chloro-phenyl)-amide (2b)], the IC50 in assay [1] was 14.5 µM; in assay [2], 2.14 µM; in assay [3], 11.1 µM.

Consider `CN(C)c1ccc(C2CC(c3cc4ccccc4o3)=NN2C(N)=S)c2ccccc12` (stereo unspecified) [3-Benzofuran-2-yl-5-(4-dimethylamino-naphthalen-1-yl)-4,5-dihydro-pyrazole-1-carbothioic acid amide (1a)], for which the figures for the IC50 in assay [1], in assay [2] and in assay [3] were 35.4 µM, 4.53 µM and 14.5 µM, respectively.

Consider `CN(C)c1ccc(C2CC(c3cc4ccccc4o3)=NN2C(=O)Nc2ccc(Cl)cc2)c2ccccc12` (stereo unspecified) [3-Benzofuran-2-yl-5-(4-dimethylamino-naphthalen-1-yl)-4,5-dihydro-pyrazole-1-carboxylic acid(4-chloro-phenyl)-amide (1b)], for which the values for the IC50 in assay [1], in assay [2] and in assay [3] were 22.2 µM, 1.87 µM and 9.1 µM, respectively.

As to `C[C@@H]1C[C@H]2[C@@H]3CCC4=CC(=O)C=C[C@]4(C)[C@@]3(F)[C@@H](O)C[C@]2(C)[C@@]1(O)C(=O)CO` [dexamethasone (tetramethyl-rhodamine conjugated )], the IC50 in assay [1] was 0.62 µM.
